Km data for 1 compound are collected here from patent US5451520A, “Creatine amidinohydrolase from alkaligenes sp. ks-85 ferm bp-4487” (Kikkoman Corporation, priority 1993, dated 1995).

For experiment [1], the system named is creatine amidinohydrolase from Alkaligenes sp. KS-85 (FERM BP-4487), the present enzyme. The experiment is described as follows: Km determination by Lineweaver-Burk plot, creatine substrate. It counts as biochemical. The following applies: pH 7.7, 37° C. As to the method: The enzyme activity forming […] yellow pigment in 1 minute under the following conditions is referred to as 1 U of the present enzyme.
6.63 g of creatine is dissolved in 500 ml of 50 mM buffer, pH 7.7.
1) 0.9 ml of the solution 1 is pre-incubated at 37° C. for 5 min.
2) 0.1 ml of an enzyme solution (adjusted in the range of approx. 1-2 U/ml) is mixed therewith and allowed to react at 37° C. for 10 min.
3) After 10 min. reaction, 2 ml of the solution 2 is mixed therewith.
4) After being mixed with the solution 2, the mixture is allowed to stand at 25° C. for 20 min., and the absorbance at 435 nm is determined (the OD sample).

Experiment [2] deals with T1, conventional creatine amidinohydrolase (CRH-211, a product of Toyobo Co., Ltd.) (Pseudomonas putida, UniProt P38488).
T1 construct: purchased Toyobo Co., Ltd. CRH-211
T1 sequence (P38488 1-403): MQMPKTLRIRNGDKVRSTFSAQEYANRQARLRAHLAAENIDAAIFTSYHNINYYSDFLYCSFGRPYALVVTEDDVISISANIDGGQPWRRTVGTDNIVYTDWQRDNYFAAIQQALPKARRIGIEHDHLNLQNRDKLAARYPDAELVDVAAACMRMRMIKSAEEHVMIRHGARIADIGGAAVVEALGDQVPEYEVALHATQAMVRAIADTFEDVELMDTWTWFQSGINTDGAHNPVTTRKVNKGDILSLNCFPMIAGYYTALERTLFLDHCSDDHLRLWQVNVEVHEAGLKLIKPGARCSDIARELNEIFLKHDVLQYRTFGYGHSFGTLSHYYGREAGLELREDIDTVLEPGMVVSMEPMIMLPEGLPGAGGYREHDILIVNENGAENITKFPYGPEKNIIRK
The following applies: conventional enzyme; substrate creatine; cited from earlier work.

Consider `CN(CC(=O)O)C(=N)N` [creatine], for which the figures for the Km in experiment [1] and in experiment [2] were 13 mM and 24 mM, respectively.
